Laboratory results taken from patent US8106055B2, “Substituted amide compounds” (Gruenenthal GmbH, priority 2007, dated 2012).

Tests used:
[1] = biological target: T1, human bradykinin 1 receptor (B1R) (Homo sapiens, UniProt P46663); assay: Functional investigation on the human bradykinin 1 receptor (B1R), Ca2+ FLIPR assay in CHO K1 hB1R cells; format: cell-based; details: B1R antagonism human; test substance 10 μM; Ca2+ FLIPR, CHO K1 hB1R cells
T1 construct: expressed in transfected cells; host or cells: CHO K1 cells
T1 sequence (P46663 1-353): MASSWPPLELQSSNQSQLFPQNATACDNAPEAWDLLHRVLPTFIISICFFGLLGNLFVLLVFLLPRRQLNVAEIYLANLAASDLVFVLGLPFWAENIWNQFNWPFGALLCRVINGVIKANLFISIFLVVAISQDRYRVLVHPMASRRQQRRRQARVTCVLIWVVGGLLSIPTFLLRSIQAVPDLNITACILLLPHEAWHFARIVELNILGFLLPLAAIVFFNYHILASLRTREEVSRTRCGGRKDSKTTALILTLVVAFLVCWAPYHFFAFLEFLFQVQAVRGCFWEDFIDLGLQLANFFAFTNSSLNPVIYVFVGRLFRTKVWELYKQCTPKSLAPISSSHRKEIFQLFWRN
Summary of the method: (§1)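 Peak Ca2+-dependent fluorescence in B1R-transfected CHO K1 cells measures antagonism of an EC80 agonist challenge given 10-20 min after compound. Agonist is Lys-Des-Arg9-bradykinin for human, Des-Arg9-bradykinin for rat receptor.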

[2] = biological target: T2, bradykinin 1 receptor (B1R) of the rat (Rattus norvegicus, UniProt P97583); assay: Functional investigation on the rat bradykinin 1 receptor (B1R), Ca2+ FLIPR assay in CHO K1 rB1R cells; format: cell-based; details: B1R antagonism rat; test substance 10 μM; Ca2+ FLIPR, CHO K1 rB1R cells
T2 construct: expressed in transfected cells; host or cells: CHO K1 cells
T2 sequence (P97583 1-337): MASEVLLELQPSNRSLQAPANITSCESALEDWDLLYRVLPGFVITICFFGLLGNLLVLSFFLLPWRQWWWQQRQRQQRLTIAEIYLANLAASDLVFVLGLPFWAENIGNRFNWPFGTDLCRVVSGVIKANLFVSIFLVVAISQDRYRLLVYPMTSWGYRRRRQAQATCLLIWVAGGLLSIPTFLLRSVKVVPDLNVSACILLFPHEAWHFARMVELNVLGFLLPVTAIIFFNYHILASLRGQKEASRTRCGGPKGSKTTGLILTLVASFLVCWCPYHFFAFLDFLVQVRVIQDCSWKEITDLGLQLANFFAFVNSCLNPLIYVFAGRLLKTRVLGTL
Summary of the method: as §1

How did the “B1R Ant. h [10 μM] % Inhibition” value [1] turn out when `CN(C)C(c1ccc(F)cc1)C1CCC(CCNC(=O)COCCN(C)S(=O)(=O)c2c(Cl)cc(Cl)cc2Cl)CC1` (stereo not drawn) [Example 386] was run?
The value was 104%.

And the “B1R Ant. r [10 μM] % Inhibition” value [2]?
Its value is 20%.

Which results are given for `COc1cc(C)c(S(=O)(=O)N2CCN(CCOCC(=O)NCCC3CCC(C(c4ccc(F)cc4)N(C)C)CC3)CC2)c(C)c1C` (stereo not drawn) [Example 387]?
B1R Ant. h [10 μM] % Inhibition [1]: 75%; B1R Ant. r [10 μM] % Inhibition [2]: −2%

Which “B1R Ant. h [10 μM] % Inhibition” value [1] does the source give for `COc1cc(C)c(S(=O)(=O)N(CCOCC(=O)NCC2CCC(C(c3cccc(F)c3)N(C)C)CC2)Cc2ccccc2)c(C)c1` (stereo not drawn) [Example 388] here?
Its value is 74%.

What about the “B1R Ant. r [10 μM] % Inhibition” value [2] of the same compound?
Its value is 16%.

How did the “B1R Ant. h [10 μM] % Inhibition” value [1] turn out when `COc1ccc(S(=O)(=O)N2Cc3ccccc3CC2COCC(=O)NCCC2CCC(C(c3ccc(F)cc3)N(C)C)CC2)cc1` (stereo not drawn) [Example 389] was run?
Its value is 36%.

And the “B1R Ant. r [10 μM] % Inhibition” value [2]?
The value was 21%.

How did the “B1R Ant. h [10 μM] % Inhibition” value [1] turn out when `CN(C)C(c1ccc(F)cc1)C1CCC(CNC(=O)COCCN(C)S(=O)(=O)c2cccc(C(F)(F)F)c2)CC1` (stereo not drawn) [Example 390] was run?
The value was 55%.

What about the “B1R Ant. r [10 μM] % Inhibition” value [2] of the same compound?
The value was 16%.

Which results are given for `CN(C)C(c1ccc(F)cc1)C1CCC(CNC(=O)COC2CCN(S(=O)(=O)c3ccc(Cl)cc3Cl)C2)CC1` (stereo not drawn) [Example 391]?
B1R Ant. h [10 μM] % Inhibition [1]: 71%; B1R Ant. r [10 μM] % Inhibition [2]: 32%

Which “B1R Ant. h [10 μM] % Inhibition” value [1] does the source give for `COc1cc(C)c(S(=O)(=O)N(C)CCOCC(=O)NCCC2CCC(C(c3ccc(F)cc3)N(C)C)CC2)c(C)c1` (stereo not drawn) [Example 392] here?
Its value is 104%.

And the “B1R Ant. r [10 μM] % Inhibition” value [2]?
The value was 103%.

Which results are given for `Cc1cc(C)c(S(=O)(=O)N2CCC(OCC(=O)NCC3CCC(C(c4ccc(Cl)cc4)N(C)C)CC3)C2)c(C)c1` (stereo not drawn) [Example 393]?
B1R Ant. h [10 μM] % Inhibition [1]: 97%; B1R Ant. r [10 μM] % Inhibition [2]: 39%

For `CN(C)C(c1ccc(Cl)cc1)C1CCC(CNC(=O)COC2CCN(S(=O)(=O)c3ccc(F)cc3)C2)CC1` (stereo not drawn) [Example 394], which “B1R Ant. h [10 μM] % Inhibition” value [1] is on record?
The value was 2%.

What about the “B1R Ant. r [10 μM] % Inhibition” value [2] of the same compound?
The value was 21%.

`CN(C)C(c1ccc(Cl)cc1)C1CCC(CCNC(=O)COC2CCCN(S(=O)(=O)c3ccccc3)C2)CC1` (stereo not drawn) [Example 395] was tested. Which “B1R Ant. h [10 μM] % Inhibition” value [1] did it give?
The value was 27%.

And the “B1R Ant. r [10 μM] % Inhibition” value [2]?
Its value is 15%.

`CCN(CCOCC(=O)NC1CCC(C(c2ccc(F)cc2)N(C)C)CC1)S(=O)(=O)c1c(C)cc(OC)c(C)c1C` (stereo not drawn) [Example 396] was tested. Which “B1R Ant. h [10 μM] % Inhibition” value [1] did it give?
Its value is 70%.

And the “B1R Ant. r [10 μM] % Inhibition” value [2]?
The value was 68%.

`COc1cc(C)c(S(=O)(=O)N2CCC(CCOCC(=O)NCCC3CCC(C(c4cccc(F)c4)N(C)C)CC3)CC2)c(C)c1C` (stereo not drawn) [Example 397] was tested. Which “B1R Ant. h [10 μM] % Inhibition” value [1] did it give?
Its value is 2%.

And the “B1R Ant. r [10 μM] % Inhibition” value [2]?
Its value is −11%.

What does the source list for `COc1ccc(S(=O)(=O)N2CCCCC2CCOCC(=O)NCCC2CCC(C(c3ccc(F)cc3)N(C)C)CC2)cc1` (stereo not drawn) [Example 398]?
B1R Ant. h [10 μM] % Inhibition [1]: 80%; B1R Ant. r [10 μM] % Inhibition [2]: 56%

How did the “B1R Ant. h [10 μM] % Inhibition” value [1] turn out when `CN(C)C(c1ccc(F)cc1)C1CCC(CNC(=O)COCCN(C)S(=O)(=O)c2ccc(Cl)cc2)CC1` (stereo not drawn) [Example 399] was run?
The value was 20%.

And the “B1R Ant. r [10 μM] % Inhibition” value [2]?
Its value is 29%.

Which results are given for `CN(C)C(c1ccc(F)cc1)C1CCC(CNC(=O)COCCN(C)S(=O)(=O)c2ccc(F)cc2)CC1` (stereo not drawn) [Example 400]?
B1R Ant. h [10 μM] % Inhibition [1]: 3%; B1R Ant. r [10 μM] % Inhibition [2]: 9%

What does the source list for `COc1ccc(S(=O)(=O)N(C)CCOCC(=O)NC2CCC(C(c3cccc(F)c3)N(C)C)CC2)cc1OC` (stereo not drawn) [Example 401]?
B1R Ant. h [10 μM] % Inhibition [1]: −19%; B1R Ant. r [10 μM] % Inhibition [2]: 1%

With `CN(C)C(c1ccc(F)cc1)C1CCC(CNC(=O)COC2CCN(S(=O)(=O)c3cccc(C(F)(F)F)c3)C2)CC1` (stereo not drawn) [Example 402] as the compound, how does the “B1R Ant. h [10 μM] % Inhibition” value [1] read?
The value was 0%.

What about the “B1R Ant. r [10 μM] % Inhibition” value [2] of the same compound?
The value was 45%.

For `COc1cc(C)c(S(=O)(=O)N2CCC(OCC(=O)NCC3CCC(C(c4ccc(Cl)cc4)N(C)C)CC3)C2)c(C)c1` (stereo not drawn) [Example 403], which “B1R Ant. h [10 μM] % Inhibition” value [1] is on record?
The value was 106%.

And the “B1R Ant. r [10 μM] % Inhibition” value [2]?
The value was 84%.

`CN(C)C(c1ccc(F)cc1)C1CCC(CNC(=O)COCCN(C)S(=O)(=O)c2c(Cl)cc(Cl)cc2Cl)CC1` (stereo not drawn) [Example 404] was tested. Which “B1R Ant. h [10 μM] % Inhibition” value [1] did it give?
The value was 104%.

And the “B1R Ant. r [10 μM] % Inhibition” value [2]?
Its value is 33%.

For `COc1ccc(S(=O)(=O)N2CCCCC2COCC(=O)NCC2CCC(C(c3ccc(F)cc3)N(C)C)CC2)c(OC)c1` (stereo not drawn) [Example 405], which “B1R Ant. h [10 μM] % Inhibition” value [1] is on record?
The value was 5%.

What about the “B1R Ant. r [10 μM] % Inhibition” value [2] of the same compound?
The value was 24%.

With `CN(C)C(c1ccc(F)cc1)C1CCC(NC(=O)COCCN(C)S(=O)(=O)c2ccc(Cl)cc2)CC1` (stereo not drawn) [Example 406] as the compound, how does the “B1R Ant. h [10 μM] % Inhibition” value [1] read?
The value was 5%.

And the “B1R Ant. r [10 μM] % Inhibition” value [2]?
Its value is 12%.
